# Measured values published in article PMC9754190, “Human CYP2B6 produces oxylipins from polyunsaturated fatty acids and reduces diet-induced obesity” (PLOS ONE, 2022).
# Experiments:
# [1] = target: T1, CYP2B6 (Homo sapiens, UniProt P20813); assay: Vivid CYP2B6 Blue fluorescence inhibition assay with recombinant baculosomes; assay type: biochemical; design: CYP2B6-containing baculosomes
# T1 sequence (P20813 1-491): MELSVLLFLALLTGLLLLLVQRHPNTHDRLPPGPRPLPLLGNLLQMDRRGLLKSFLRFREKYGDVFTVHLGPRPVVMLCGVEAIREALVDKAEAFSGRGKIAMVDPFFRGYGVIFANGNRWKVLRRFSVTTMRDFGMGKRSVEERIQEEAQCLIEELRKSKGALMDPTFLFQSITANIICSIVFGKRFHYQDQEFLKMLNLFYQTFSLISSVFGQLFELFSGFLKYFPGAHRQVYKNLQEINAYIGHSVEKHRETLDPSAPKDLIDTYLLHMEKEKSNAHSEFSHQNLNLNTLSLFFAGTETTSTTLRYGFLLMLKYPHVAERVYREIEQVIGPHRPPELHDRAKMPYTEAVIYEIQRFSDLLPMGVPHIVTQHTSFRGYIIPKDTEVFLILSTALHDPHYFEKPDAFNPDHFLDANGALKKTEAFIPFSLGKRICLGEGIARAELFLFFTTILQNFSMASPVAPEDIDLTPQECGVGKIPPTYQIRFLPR
# [2] = target: T1, CYP2B6; assay: biochemical
IC50 [2],Structure (SMILES),IC50 [1]
,"CC/C=C\C/C=C\C/C=C\C/C=C\C/C=C\C/C=C\CCC(=O)O [DHA, docosahexaenoic acid]",2400 nM
4480 nM,"CC/C=C\C/C=C\C/C=C\CCCCCCCC(=O)O [ALA, α-linolenic acid]",
,"CCCCC/C=C\C/C=C\C/C=C\C/C=C\CCCC(=O)O [AA, arachidonic acid]",1510 nM
,"CCCCC/C=C\C/C=C\CCCCCCCC(=O)O [LA, linoleic acid]",2900 nM
